The subject of this test is anti-dioxin antibody (monoclonal antibody) to 1,2,3,7,8-PeCDF. In kind it is binding, mouse. The note with it: Table 3, other chlorine-containing organic compounds and polycyclic aromatic hydrocarbons; solid-phase antigen (IIa); antibody to 1,2,3,7,8-PeCDF. The method, then: First, the immune antigen or the compound (IIa) conjugated with BSA that was produced in Example 2 was diluted with PBS to 1 μg/ml, and divided into each well of a 96-well assay plate (manufactured by Costar, Cat. No. 3590) in an amount of 50 μl. Then, the plate was sealed and allowed to stand at room temperature for one hour. Then, each well was washed with PBS containing 0.005% of Tween 20 three times. Next, 300 μl of Block Ace (manufactured by Snow Brand Milk Products Co., Ltd.) diluted with distilled water to a concentration of 25% was supplied to each well, and the plate was sealed and allowed to stand at 37° C. for two hours. Each well was washed with PBS containing 0.005% of Tween 20 three times. Then, a 25 μl of the dioxin compound solution of a final concentration of 5×10^−7 M was added to each well. The dioxin compound solution was prepared by diluting the dioxin with a dilution solvent comprising 20% DMSO and 0.01% of Triton X100. As controls, a dilution solvent in an amount of 25 μl was added to each well. Immediately after the addition of the dioxin compound solution or the dilution solvent, 25 μl of an antibody solution diluted with PBS containing 1 mg/ml of BSA was added to each well. The assay plate was stand at room temperature for one hour with slightly shaking.
After washing with PBS containing 0.005% of Tween 20 three times, 50 μl of the diluted HRP-labeled goat anti-mouse IgG (H+L) antibody (produced by affinity purification) was added to each well. The diluted HRP-labeled antibody was prepared by diluting the purchased HRP-labeled antibody to 2000 times as much with 10% Block Ace. The plate was allowed to stand at room temperature for one hour, followed by washing with PBS containing 0.005% of Tween 20 three times. Then, 50 μl of a HRP substrate, TMB (manufactured by KPL Co., Ltd.), was added to each well and allowed to stand at room temperature for 5 to 10 min. Then, 5 μl of a 1 M phosphate solution was added to each well, and the absorbance at a wavelength of 455 nm (655 nm for the reference) was measured with a spectrophotometer for a microtiter. The reactivity was evaluated by obtaining the absorbance (B0) at the time when the dioxin compound is not added, which is a control (diluent) and the absorbance (B) at the time when the dioxin compound is added. The inhibition rate was measured based on the following equation. Inhibition rate={(B0−B)/B0}×100 (%)
An anti-dioxin antibody (monoclonal antibody) to 1,2,3,7,8-PeCDF is used as an antibody. A haptenized product of a solid-phase antigen 6-(2,4,5-trichlorophenoxy) hexanoic acid amide derivative (IIa) and the chlorine-containing organic compounds in Tables 2 and 3 were allowed to compete with each other to this anti-dioxin antibody so that a competitive reaction was effected in the same manner as in Example 3. Then, the cross-reactivity was examined.
In the case of `Clc1ccc(-c2cc(Cl)c(Cl)c(Cl)c2)cc1Cl` [3,3′,4,4′,5-PeCB], the cross reaction is reported as less than 0.1%.

Regarding `c1cc2ccc3cccc4ccc(c1)c2c34` [Pyrene], the cross reaction is reported as less than 0.1%.

Consider `Clc1ccc(-c2ccccc2)cc1` [p-chlorobiphenyl], for which the cross reaction is recorded as less than 0.1%.

In turn, `c1ccc2c(c1)-c1cccc3c1c-2cc1ccccc13` [Benzo[b]fluoranthene] came in with a cross reaction of less than 0.1%.

Consider `Clc1cccc(Cl)c1Cl` [1,2,3-Trichlorobenzene], for which the cross reaction is less than 0.1%.

Turning to `Clc1ccc(-c2ccc(Cl)c(Cl)c2)cc1Cl` [3,3′,4,4′-TeCB], the cross reaction is given as less than 0.1%.

For `Oc1cc(Cl)c(Cl)cc1Cl` [2,4,5-Trichlorophenol], the cross reaction was less than 0.1%.

`c1ccc2ccccc2c1` [Naphthalene] came in with a cross reaction of less than 0.1%.

Turning to `c1ccc2cc3ccccc3cc2c1` [Anthracene], the cross reaction was less than 0.1%.

The molecule `c1ccc2c(c1)ccc1ccccc12` [Phenanthrene] gave a cross reaction of less than 0.1%.

As for `c1ccc2c(c1)-c1ccc3ccc4cccc5cc-2c1c3c45` [Indeno[1,2,3-cd]pyrene], the cross reaction was less than 0.1%.

`Oc1ccc(Cl)cc1Cl` [2,4-Dichlorophenol] displayed a cross reaction of less than 0.1%.

`c1ccc2cc3c(ccc4ccccc43)cc2c1` [Benz[a]anthracene] gave a cross reaction of less than 0.1%.

In the case of `Oc1ccc(Cl)c(Cl)c1` [3,4-Dichlorophenol], the cross reaction is less than 0.1%.

Take `c1ccc2c(c1)ccc1c3ccccc3ccc21` [Chrysene]: the cross reaction is on record as less than 0.1%.

The values above are taken from patent publication US7166440B2, “2,4,5-trichlorophenoxyalkyl carboxylic acid and a method for determining dioxins using the same” (priority 2003, dated 2007).
